Assay results taken from patent US11564919B1, “Small molecule inhibitors for treatment of alpha viruses” (priority 2021, dated 2023).
Entries after “also recorded” stand apart in the source; their conditions may differ.

How the values were obtained:
[1] = system: CHIKV-GFP reporter virus; experiment: microbe, parasite or virus in culture; assay type: cell-based, Chikungunya virus (CHIKV) strain 181/25; details: for IC50: Chikungunya virus, HeLa, read-out: IC50 against CHIKV-GFP reporter virus
[2] = system: VEEV TC-83; assay type: cell-based, Venezuelan Equine Encephalitis Virus
[3] = system: RVFV MP12; assay type: cell-based, Rift Valley fever virus
[4] = system: Zika virus (ZIKV); assay type: cell-based
[5] = system: CHIKV 181/25; assay type: cell-based, Chikungunya virus
[6] = system: CHIKV 181/25; assay type: cell-based, Chikungunya virus; remark: listed apart in the source
[7] = system: HeLa cells; details: 30 μM, 48 hours
[8] = system: A549 cells; details: 30 μM, 48 hours

SMILES | CHIKV-GFP fluorescence, relative percent infection [1] | IC50 [1] | VEEV TC-83 infection [2] | viral titer of RVFV [3] | ZIKV viral titer [4] | CHIKV 181/25 viral titer by time of compound addition [5] | infection of CHIKV 181/25 [6] | percentage of VEEV TC-83 infected cells [2] | reduction of HeLa cell viability [7] | reduction of A549 cell viability [8]
O=C(/C=C/c1ccc2c(c1)OCO2)N1CCN(Cc2nc(-c3ccco3)cs2)CC1 [Compound I, (2E)-3-(2H-1,3-benzodioxol-5-yl)-1-(4-{[4-(furan-2-yl)-1,3-thiazol-2-yl]methyl}piperazin-1-yl)prop-2-en-1-one] | more effective in A549 cells | 10900 nM | the only compound reducing VEEV TC-83 infection | minimal effectiveness | no obvious reduction | relatively similar reduction of viral titer across all timepoints |  |  |  | 
Sc1nnc2c(n1)[nH]c1ccccc12 [Compound III, 5H-[1,2,4]Triazino[5,6-b]indole-3-thiol] |  | 2820 nM |  |  | some minimal effect | relatively similar reduction of viral titer across all timepoints | didn't reduce infection | reduced the percentage of VEEV TC-83 infected cells |  | 
Cn1c(=N)sc2c3ccccc3ccc21 [Compound IV, 3-methyl-2H,b3H-naphtho[2,1-d][1,3]thiazol-2-imine] | greater inhibition of virus infection in HeLa cells | 2590 nM |  | significantly reduced titer | strong reduction | strongest reduction with pre-treatment, with lessened efficacy at each consecutive timepoint; also recorded: consecutively reduced levels of efficacy at later timepoints |  | reduced the percentage of VEEV TC-83 infected cells | 23.8% | 29%
